In patent US20240199547A1, “OPTICAL ABSORBENT COMPOSITION” (LMS CO., LTD., priority 2022, published 2024):

Assay: Solubility of each synthesized chemical compound in solvents at room temperature
Assay type: physicochemical
Conditions: room temperature (about 25° C.); for Solubility in MEK: methyl ethyl ketone (MEK); for Solubility in MIBK: methyl isobutyl ketone (MIBK)
Procedure: The solubility of each synthesized chemical compound was evaluated. Solubility was determined according to the following criteria by evaluating the solubility of each chemical compound in a plurality of solvents (cyclohexanone, toluene, methyl isobutyl ketone (MIBK) or methyl ethyl ketone (MEK)) at room temperature (about 25° C.).
A: When the solubility is 1% by mass or more.
B: When the solubility is 0.5% by mass or more and less than 1% by mass.
C: When the solubility is 0.2% by mass or more and less than 0.5% by mass.
D: When the solubility is less than 0.2% by mass.
The solubility evaluation results were summarized and described in Table 1.

| SMILES | Solubility in Cyclohexanone | Solubility in MEK | Solubility in MIBK | Solubility in Toluene |
| --- | --- | --- | --- | --- |
| CCCCC(CC)C(=O)Nc1cc2c(cc1C1=C([O-])/C(=c3\cc4c(cc3NC(=O)C(CC)CCCC)=[N+](CCCC)C(C)C4(C)C)C1=O)C(C)(C)C(C)N2CCCC (centres unmarked) [Synthesis Example 2] | A (When the solubility is 1% by mass or more.) | A (When the solubility is 1% by mass or more.) | A (When the solubility is 1% by mass or more.) | A (When the solubility is 1% by mass or more.) |
| CCCCCCCCN1c2cc(NC(=O)C(F)(F)F)c(C3=C([O-])/C(=c4\cc5c(cc4NC(=O)C(F)(F)F)=[N+](CCCCCCCC)C(CC)C5(C)C)C3=O)cc2C(C)(C)C1CC (centres unmarked) [Synthesis Example 3] | A (When the solubility is 1% by mass or more.) | A (When the solubility is 1% by mass or more.) | A (When the solubility is 1% by mass or more.) | A (When the solubility is 1% by mass or more.) |
| CCCC(=O)Nc1cc2c(cc1C1=C([O-])/C(=c3\cc4c(cc3NC(=O)CCC)=[N+](CCOC)C(C)C4(C)C)C1=O)C(C)(C)C(C)N2CCOC (centres unmarked) [Synthesis Example 4] | A (When the solubility is 1% by mass or more.) | A (When the solubility is 1% by mass or more.) | A (When the solubility is 1% by mass or more.) | A (When the solubility is 1% by mass or more.) |
| CCCCCCN1c2cc(NC(=O)OCC)c(C3=C([O-])/C(=c4\cc5c(cc4NC(=O)OCC)=[N+](CCCCCC)C(C)C5(C)C)C3=O)cc2C(C)(C)C1C (centres unmarked) [Synthesis Example 5] | A (When the solubility is 1% by mass or more.) | A (When the solubility is 1% by mass or more.) | A (When the solubility is 1% by mass or more.) | A (When the solubility is 1% by mass or more.) |
| CC(=O)Nc1cc2c(cc1C1=C([O-])/C(=c3\cc4c(cc3NC(C)=O)=[N+](C)C(C)C4(C)C)C1=O)C(C)(C)C(C)N2C (centres unmarked) [Synthesis Example 6] | B (When the solubility is 0.5% by mass or more and less than 1% by mass.) | B (When the solubility is 0.5% by mass or more and less than 1% by mass.) | B (When the solubility is 0.5% by mass or more and less than 1% by mass.) | B (When the solubility is 0.5% by mass or more and less than 1% by mass.) |
